These results are taken from US12447159B2 (AELIS FARMA, priority 2018, dated 2025).

One data set concerns THC dependent mice. Put plainly: Precipitated withdrawal in mice chronically treated with THC. Type of data set: in vivo. The note with it: mice repeatedly treated with THC 20 mg/kg ip; Rimo 10 mg/kg ip; 3pMBP […] per os. The protocol: The chronic THC regimen (20 mg/kg, twice a day) used in these experiments has been chosen because it mimics heavy marijuana use (Cook et al., 1998) and is considered as a model of cannabinoids dependence in mice (Cutando et al., 2013; Hutcheson et al., 1998). […] From day 1 to 4-5, mice were injected ip with vehicle or THC (20 mg/kg in NaCl 0.9% containing 2% ethanol and 2% Tween80, 10 ml/kg) twice a day. […] All the other animals received the administration of the respective vehicle. […] The dose and schedule of administration of rimonabant chosen for this study has been commonly used to precipitate THC withdrawal in mice (Cook et al. 1998, Hutcheson et al., 1998, Huang et al., 2009).
For the measure of precipitated withdrawal, mice were placed in a novel home cage and a video camera positioned in front of each cage recorded animals' behaviors. Scoring was performed for 1 minute every 5 min-period. Two withdrawal signs were analyzed: paw tremors and head shaking, since they are the most common signs of THC withdrawal observed in mice (Cook et al. 1998, Hutcheson et al., 1998, Lichtman et al., 2001).

The test system of data set [1] is human chromosome aberration. Put plainly: Human Chromosome Aberration test +/- metabolic activation (GLP). It is filed as cell-based. The settings on record: highest concentration tested between 74 and 100 μM. From the text:
[…].

Another data set has as its target OATP1B1 (Homo sapiens, UniProt Q9Y6L6). Put plainly: Cellular transporter inhibition, CHO cells (fluorometry). The note with it: 10 μM.
The target of the next data set is UGT1A1 (Homo sapiens, UniProt P22309). Put plainly: UGT1A1 inhibition (recombinant, scopoletin substrate) assay. It is filed as in vitro ADME. The settings on record: 10 μM. As for the experimental part: The reaction is initiated by adding the co-factor uridine-diphosphoglucuronic acid (UDPGA), the incubation is continued for 60 minutes and relative fluorescence intensity (RFI) is measured on a fluorescent plate reader.
Sequence of UGT1A1 (P22309 26-533): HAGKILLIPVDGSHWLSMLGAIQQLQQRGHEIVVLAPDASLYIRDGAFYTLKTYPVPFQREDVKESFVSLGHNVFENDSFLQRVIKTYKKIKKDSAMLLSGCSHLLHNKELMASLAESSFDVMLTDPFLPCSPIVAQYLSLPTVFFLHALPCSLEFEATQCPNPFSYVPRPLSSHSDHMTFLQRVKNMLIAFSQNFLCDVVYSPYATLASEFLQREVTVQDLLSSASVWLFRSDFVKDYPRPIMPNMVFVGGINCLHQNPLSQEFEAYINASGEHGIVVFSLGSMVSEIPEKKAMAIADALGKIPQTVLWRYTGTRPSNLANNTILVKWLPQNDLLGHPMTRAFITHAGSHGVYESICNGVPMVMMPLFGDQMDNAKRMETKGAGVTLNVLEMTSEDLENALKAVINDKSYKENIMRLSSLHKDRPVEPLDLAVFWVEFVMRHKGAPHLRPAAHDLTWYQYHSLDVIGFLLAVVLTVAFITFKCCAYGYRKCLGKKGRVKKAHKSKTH

Data set [2] concerns diet-induced obese (DIO) mouse model. Put plainly: Repeated treatment: food intake and body weight in diet-induced obese (DIO) mice. It is filed as in vivo. As for the experimental part: Male C57BL/6J mice were fed ad libitum with a high-fat diet (HFD) for 8 weeks before the start of the pharmacological treatments. During pharmacological treatments, the HFD was maintained and food intake and body weight were measured daily. The food consumed was calculated by subtracting the food left in the hoppers from the initial pre-weighted amount. […] 3pMBP and rimonabant were administered by oral gavage once a day, two hours before the start of the dark phase of the light/dark cycle.

A short description of data set [3]: Metabolic stability in human liver microsomes (HLM). It is filed as in vitro ADME. The settings on record: human LM, NADPH. The protocol:
The investigation was performed on liver microsomes (LM) coming from mouse (MLM), rat (RLM), dog (DLM) and human (HLM).
3pMBP was incubated with liver microsome pools supplemented with NADPH as cofactor. Samples were taken at 5 different times (0, 10, 20, 30 and 60 minutes) and samples were monitored for parent compound disappearance in MRM mode using LC/MS-MS. The Intrinsic Clearance and half-life have been determined. Verapamil was used as reference compound.
In general terms: Liver microsomes are a subcellular fraction often used to study metabolism.

The next data set has as its system CYP1A2. Put plainly: CYP induction (mRNA level). It is filed as in vitro ADME. The note with it: 10 nM, 100 nM and 1 μM.
For data set [4], the system named is THC-induced object recognition impairment. Put plainly: THC-induced impairment of long-term memory (object recognition test). The note with it: per os 3 h before THC 6 mg/kg ip; mice.
From the text: Ten minutes before THC injection, mice were allowed to explore 2 identical objects in an “L”-shaped maze. The day after, one object was replaced by a novel one. […] The comparison of the time spent exploring the familiar and the novel objects is used as an index of discrimination between familiarity and novelty. Therefore, this parameter is used to evaluate object recognition performances.
Data set [5] relates to testosterone, DHEA and allopregnanolone. Put plainly: Conversion in downstream steroids, dogs (GC/MS-MS). The note with it: male and female dogs; acute or repeated (28 days) 2, 9 and 36 mg/kg. Type of data set: in vivo. The protocol: In all these studies plasma concentrations of steroids were measured by gas chromatography-tandem mass spectrometry (GC/MS-MS).
For another data set, the target named is OAT1 (Homo sapiens, UniProt Q4U2R8). Put plainly: Cellular transporter inhibition, CHO cells (fluorometry). The settings on record: 10 μM.
Sequence of OAT1 (Q4U2R8 whole entry): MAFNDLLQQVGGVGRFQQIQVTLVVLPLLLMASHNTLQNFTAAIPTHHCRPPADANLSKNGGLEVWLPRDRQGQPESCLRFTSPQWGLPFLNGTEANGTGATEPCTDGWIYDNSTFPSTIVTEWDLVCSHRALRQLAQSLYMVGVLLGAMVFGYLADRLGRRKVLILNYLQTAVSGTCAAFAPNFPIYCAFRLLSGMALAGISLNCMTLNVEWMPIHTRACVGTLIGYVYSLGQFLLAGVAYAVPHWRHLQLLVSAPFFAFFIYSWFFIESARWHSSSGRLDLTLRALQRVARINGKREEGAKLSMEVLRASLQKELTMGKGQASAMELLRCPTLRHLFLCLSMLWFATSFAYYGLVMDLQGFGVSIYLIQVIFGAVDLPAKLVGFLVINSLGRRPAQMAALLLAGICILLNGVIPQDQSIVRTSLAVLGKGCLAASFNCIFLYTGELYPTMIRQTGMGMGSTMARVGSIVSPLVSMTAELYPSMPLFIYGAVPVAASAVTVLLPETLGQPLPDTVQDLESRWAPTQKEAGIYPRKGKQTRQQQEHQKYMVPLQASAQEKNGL
The subject of data set [6] is 85 receptors (CEREP High-throughput profile+4 steroid receptors+Cannabinoid type 2 receptor). Put plainly: CEREP High-throughput binding profile (85 receptors). From the text:
The CEREP High-throughput profile consists of a broad collection of 80 transmembrane and soluble receptors, ion channels and G-Protein coupled receptors.

Data set [7] deals with THC-induced conditioned gaping. Put plainly: THC-induced conditioned gaping behavior. It is filed as in vivo. The settings on record: rats. As for the experimental part:
Three days after cannulation surgery, rats were adapted to the taste reactivity chamber. Rats were individually placed in a Taste Reaction (TR) chamber with their cannulas attached to an infusion pump to infuse water into their intraoral cavity over a period of 2 min at the rate of 1 ml/min and then returned to their home cage. Rats received the first of three daily conditioning trials three days after the adaptation trial. […] Rats received the pre-treatment drug 3 hours prior to conditioning via feeding tube. They were then placed in the TR chamber and infused with 0.1% saccharin solution for 2 min at a rate of 1 ml/min while orofacial reactions were recorded. Immediately following saccharin infusion, the rats were injected […] with 10 mg/kg THC or VEH and returned to their home cage. Twenty-four hour later, the rats underwent a drug free test trial where they were placed in the TR chamber and infused with 0.1% saccharin solution for 2 min at a rate of 1 ml/min and orofacial reactions were recorded.

For another data set, the system named is male Wistar rats. Put plainly: Irwin test and body temperature in rats (GLP). Type of data set: in vivo. The settings on record: 2, 9 and 36 mg/kg, single oral. As for the experimental part: The study involved 4 groups of 6 male Wistar rats weighing between 154.0 and 185.9 g.
On study day, animals were firstly scored by the Irwin standardized observation battery and the body temperature was measured. […] Then the Irwin scores as well as measurement of body temperature were performed again at 1, 3, 6, 8 and 24 hours after the administration.

The next data set has as its system THC-induced catalepsy. Put plainly: THC-induced catalepsy (catalepsy bar test). Type of data set: in vivo. The note with it: per os 3 h before THC 10 mg/kg; mice. The protocol: Measuring of the catalepsy induced by THC was started 30 min after THC injection.
Catalepsy was measured by the catalepsy bar test. The forepaws of mice were placed on a bar fixed horizontally at 3.5 cm from the bench surface. The latency for moving from the bar was recorded with a cut-off time fixed at 420 s (7 min). Each mouse was submitted to a maximum of four consecutive trials. The maximum latency shown at one trial was selected as the measure of catalepsy.

Setting [8] is: 3 h prior to conditioning with THC 10 mg/kg.

Entries after “also recorded” stand apart in the source; their conditions may differ. Some results are limits rather than exact numbers.

Sequence of OATP1B1 (Q9Y6L6 whole entry): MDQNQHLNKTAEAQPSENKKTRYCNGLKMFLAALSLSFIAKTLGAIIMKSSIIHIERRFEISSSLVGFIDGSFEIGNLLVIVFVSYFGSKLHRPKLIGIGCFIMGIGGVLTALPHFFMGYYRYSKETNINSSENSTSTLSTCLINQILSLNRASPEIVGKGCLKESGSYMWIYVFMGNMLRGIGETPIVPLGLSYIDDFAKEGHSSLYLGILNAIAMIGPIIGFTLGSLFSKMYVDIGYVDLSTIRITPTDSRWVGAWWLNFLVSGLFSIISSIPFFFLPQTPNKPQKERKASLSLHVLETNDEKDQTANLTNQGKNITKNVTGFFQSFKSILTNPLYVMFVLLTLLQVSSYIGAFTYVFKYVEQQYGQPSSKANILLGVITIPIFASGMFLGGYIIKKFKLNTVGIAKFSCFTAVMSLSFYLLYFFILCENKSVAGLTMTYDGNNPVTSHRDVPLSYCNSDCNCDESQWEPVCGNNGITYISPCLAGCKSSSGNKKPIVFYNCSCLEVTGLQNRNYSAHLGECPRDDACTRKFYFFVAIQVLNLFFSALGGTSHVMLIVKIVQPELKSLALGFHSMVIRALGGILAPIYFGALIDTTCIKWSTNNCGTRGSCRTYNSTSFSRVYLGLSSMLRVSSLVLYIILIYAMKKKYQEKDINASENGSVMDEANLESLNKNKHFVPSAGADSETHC
Method for OAT1: (§1) Chinese Hamster Ovary (CHO) were used for all transporters except for P-gp that was studied in Madin-Darby Canine Kidney (MDR1-MDCKII) cells. The inhibition of the activity of each transporter is evaluated by measuring changes in the transport of their specific substrates by fluorometry.
Method for OATP1B1: as §1

What is called half-life is the time needed for the level to fall by half in the phase considered. Lower therefore signals rapid decline. As usually defined, the % inhibition is the share of the control response that was lost under treatment. Lower therefore signals little suppression. With `COc1ccc(CO[C@H]2CC[C@@]3(C)C(=CC[C@H]4[C@@H]5CC[C@H](C(C)=O)[C@@]5(C)CC[C@@H]43)C2)cc1` [3pMBP, 3β-(4-methoxybenzyloxy)pregn-5-en-20-one], in the data set with THC dependent mice, the “Duration of paw tremors” value is recorded as “but not 3pMBP (0.15 mg/kg; per os) increases the duration of paw tremors”. For the same compound, the Genotoxicity entry in [1] was “did not show any cytotoxicity, genotoxicity and mutagenesis”. Further, the “Activity of OATP1B1” value at OATP1B1 is “did not modify the activity”. Besides, on UGT1A1, the “Activity of UGT1A1” value is given as “did not modify the activity”. In [2] (male mice, highest dose tested 15 mg/kg), the “Inhibition of food-intake and body weight (repeated administration): Effect (3pMBP)” value was “at none of the dose tested did modify food intake or body weight and No”. Also, in [2] (vs vehicle, Rimo 10 mg/kg ip, 3pMBP 0.005-15 mg/kg per os), the “Food intake in obese mice” value is “but not 3pMBP (0.005, 0.015, 0.05, 5 and 15 mg/kg; per os), decreases food intake”. The compound further returned a half-life in data set [3] of 6.83 h. In addition, the microsomal CLint in data set [3] (read-out: intrinsic clearance) came to 3.38 µL/min/mg. The “Expression of CYP1A2” value in the data set with CYP1A2 was “did not increase the expression”. Besides, in data set [4], the “% inhibition” value is given as 100% and the ID50 was below 5 µg/kg. The “Plasma concentrations of testosterone, DHEA and allopregnanolone” value in data set [5] is given as “no effect”. In addition, at OAT1, the “Activity of OAT1” value is “did not modify the activity”. Moreover, in data set [6] (10 μM), the “Modification of ligand binding” value was “did not modify the binding of any of the 85 receptors; also recorded: did not modify the binding of these receptors or of any of the other receptors”. Besides, in data set [6] (receptor binding, 85 receptors, read-out: ID50 (the source's name)), the IC50 is above 10 µM. In addition, the “Establishment of conditioned gaping (mean number of gaping reactions)” value in data set [7] (0.005 and […], THC 10 mg/kg) is “interfered the establishment of conditioned gaping by reducing the mean number of gaping reactions”. In [7] (setting [8]), the “% inhibition” value worked out at 50% and the ID50 was below 5 µg/kg. Further, the “Behavior (Irwin test) and body temperature” value in the data set on male Wistar rats is “did not modify”. In addition, in the data set with THC-induced catalepsy, the “% inhibition” value was determined as 50%, the ID50 is 5 µg/kg and the ID100 was 50 µg/kg.
